# From paper PMC9572942, “The Discovery of Small Allosteric and Active Site Inhibitors of the SARS-CoV-2 Main Protease via Structure-Based Virtual Screening and Biological Evaluation” (Molecules, 2022)
# Legend:
# SARS-CoV-2 M^pro enzyme [1] = biological target: T1, SARS-CoV-2 M^pro enzyme (Severe acute respiratory syndrome coronavirus 2, UniProt P0DTD1); experiment: Inhibition kinetic study (Lineweaver–Burk, FRET assay); format: biochemical; conditions: from slope of Lineweaver–Burk curves vs. inhibitor concentration
# SARS-CoV-2 M^pro enzyme [2] = biological target: T1, SARS-CoV-2 M^pro enzyme; experiment: FRET-based enzyme assay and IC50 determination; format: biochemical; conditions: 4.6 μM enzyme, HEPES pH 6.5
compound,measurement,setting,value
O=C(CSc1cnc2ccccc2n1)NC1CCCC1 [CB03],Ki,SARS-CoV-2 M^pro enzyme [1],256 µM
same,IC50,SARS-CoV-2 M^pro enzyme [2],301 ± 10 µM
